Patent publication US4552865A, “Psychotropic drugs” (Shionogi & Co., Ltd., priority 1981, dated 1985)
Where a name gives a salt, the structure may show the parent alone. Read-outs that look alike come from different tables or passages of the source. Where a SMILES comes first, the peptide text is derived from it. [ ]: non-standard residue; d: D form. sY = N[C@@H](Cc1ccc(OS(=O)(=O)O)cc1)C(=O)O; pGlu = O=C1CC[C@@H](C(=O)O)N1

Assays:
[1] = test system: patients of schizophrenia
Protocol: (1) Method of application: Caerulein tris-diethylamine salt is dissolved in sterilized physiological saline at a rate of 20 μg/ml (W/V), and intramuscularly injected to each patient once at a dose of 0.3 μg/kg (body weight) or 0.6 μg/kg (body weight).

mice = settings: intravenous, cited from earlier work
rats = settings: intravenous, cited from earlier work

Row | SMILES | Side effect ([1]; individual schizophrenia patient, after i.m. injection) | mental conditions ([1]; administered to humans) | LD50 (mice; female) [mg/kg] | LD50 (mice; male) [mg/kg] | LD50 (rats; female) [mg/kg] | LD50 (rats; male) [mg/kg]
1 | CSCC[C@H](NC(=O)[C@H](Cc1c[nH]c2ccccc12)NC(=O)CNC(=O)[C@@H](NC(=O)[C@H](Cc1ccc(OS(=O)(=O)O)cc1)NC(=O)[C@H](CC(=O)O)NC(=O)[C@H](CCC(N)=O)NC(=O)[C@@H]1CCC(=O)N1)[C@@H](C)O)C(=O)N[C@@H](CC(=O)O)C(=O)N[C@@H](Cc1ccccc1)C(N)=O [Caerulein tris-diethylamine salt] ([pGlu]QD[sY]TGWMDF-NH2) | No | – | – | – | – | –
2 | CSCC[C@H](NC(=O)[C@H](Cc1c[nH]c2ccccc12)NC(=O)CNC(=O)[C@@H](NC(=O)[C@H](Cc1ccc(OS(=O)(=O)O)cc1)NC(=O)[C@H](CC(=O)O)NC(=O)[C@H](CCC(N)=O)NC(=O)[C@@H]1CCC(=O)N1)[C@@H](C)O)C(=O)N[C@@H](CC(=O)O)C(=O)N[C@@H](Cc1ccccc1)C(N)=O [caerulein, 5-oxo-L-prolyl-L-glutaminyl-L-aspartyl-O-sulfo-L-tryosyl-L-threonylglycyl-L-tryptophyl-L-methionyl-L-aspartyl-L-phenylalaninamide] ([pGlu]QD[sY]TGWMDF-NH2) | – | improves rapidly and markedly the mental conditions | 702 | 647 | 571 | 714
